The assay deals with T1, human recombinant p38α protein kinase (Homo sapiens, UniProt Q16539).
T1 construct: purchased UBI (Upstate Biotechnology Inc.) 14–251; host or cells: E. coli
Put plainly: Human p38α MAP kinase inhibition assay (cell-free, phosphorylation of myelin basic protein). Format: biochemical. Here is the method:
Candidate compound and/or vehicle was preincubated with 0.075 μg/mL enzyme in modified HEPES buffer pH 7.4 at 25° C. for 15 minutes. The reaction was initiated by addition of 100 μM ATP and allowed to proceed for another 60 minutes. The reaction was terminated by aspirating the solution. Phosphorylated MBP was detected by incubation with a mouse monoclonal IgG2a anti-phosphoMBP antibody. Bound anti-phosphoMBP antibody was quantitated by incubation with a HRP conjugated goat anti-mouse IgG.

T1 sequence (Q16539 whole entry): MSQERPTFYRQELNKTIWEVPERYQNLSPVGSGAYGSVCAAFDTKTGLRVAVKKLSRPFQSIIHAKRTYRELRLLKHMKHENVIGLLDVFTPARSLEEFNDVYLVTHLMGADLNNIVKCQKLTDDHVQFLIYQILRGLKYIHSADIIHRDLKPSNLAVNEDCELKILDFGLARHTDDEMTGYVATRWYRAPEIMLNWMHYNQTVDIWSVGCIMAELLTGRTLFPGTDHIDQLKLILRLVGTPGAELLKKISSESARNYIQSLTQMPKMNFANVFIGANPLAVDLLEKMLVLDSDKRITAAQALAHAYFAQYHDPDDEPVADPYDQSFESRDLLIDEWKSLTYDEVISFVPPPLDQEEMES

As for `CCC(C)(C)C(=O)O[C@H]1C[C@@H](C)C=C2C=C[C@H](C)[C@H](CC[C@@H]3C[C@@H](O)CC(=O)O3)[C@H]21` [Simvastatin sodium], the IC50 is over 100 µM.

Usually IC50 stands for the concentration needed to halve the response being measured.
